Article PMC10857328, “Utilization of Biopolymer-Based Lutein Emulsion as an Effective Delivery System to Improve Lutein Bioavailability in Neonatal Rats” (Nutrients, 2024)

Experiments:
[1] = Acute dosing study: tissue lutein profiles; type: in vivo, neonatal Sprague-Dawley rats; conditions: single oral dose, 10 mg/kg, free lutein or emulsion
Experimental: To determine the bioavailability of lutein in neonatal Sprague-Dawley rats, an acute dosing study was conducted. The procedure was approved by the Institutional Animal Care and Use Committee of the University of Alabama (Number: 21-08-4864, 23 September 2021). On postnatal day 10 (P10), neonatal rats were randomly selected from litters and received a single dose of either free lutein (i.e., lutein ester dissolved in olive oil) or lutein emulsion, both containing 10 mg/kg body weight of lutein. The dose was administered to the pup’s mouth via a pipette. The concentration of lutein ester in the oil phase was 0.004 g/mL. The lutein dosage was selected based on our pilot study and previous studies. It is higher than the dosage used in human newborns but is considered acceptable and safe to be used in pharmacokinetic studies in rodent models. At 0.5 h, 1 h, 2 h, 4 h, 6 h, 12 h, and 24 h after dosing, pups (n = 3/time point/group) were euthanized, and blood, liver, spleen, brain, and eye were collected. Serum was obtained by centrifuging blood samples and tissues were stored at −80 °C until time of analysis. A group of rat pups (n = 3) not receiving treatments were used to measure the baseline lutein concentrations. Throughout the study, maternal rats consumed a purified diet with no lutein (D19120501, Research Diets Inc, New Brunswick, NJ, USA) (Table 1).
Serum and tissue lutein concentration was determined using an ultra-performance liquid chromatography (UPLC) system (Waters, Milford, MA, USA) equipped with a photo-diode array detector (PDA)/MS/MS, according to our well-established methods with slight modification. As for the serum, 100 μL of the sample was incubated with 2 mL of 100% ethanol at room temperature for an hour for lipid extraction. For the tissues, ~0.1 g of the sample was weighed, homogenized, and incubated with 2 mL of 100% ethanol at room temperature for an hour. An amount of 1 mL of 5% (w/v) potassium hydroxide was added to the sample and incubated in a water bath at 60 °C for 45 min for saponification. […]

[2] = Daily dosing studies: body and tissue weights, observable illness; type: in vivo, neonatal Sprague-Dawley rats; conditions: daily oral administration, 2 mg/kg, P5-P18, both daily dosing studies
Experimental: To determine the effects of daily consumption of CTA-stabilized lutein emulsion on tissue lutein status, two daily dosing studies were conducted. The procedures were approved by the Institutional Animal Care and Use Committee of the University of Alabama (Number: 21-02-4373, 4 February 2021). For daily dosing study 1 (Figure 1B), on P5, rat pups (n = 8–9/group) were randomly selected from the litters and received an oral dose of either free lutein (i.e., lutein ester dissolved in olive oil) or lutein emulsion both containing 2 mg/kg body weight of lutein. […] Dosing was repeated daily until P18. The dosage was determined from previous research in both rodent and human newborns and was also established as an Acceptable Daily Intake for lutein by the Joint Food and Agricultural Organization/World Health Organization. On P19, pups were euthanized. Rats are known to wean between P19 and P21 [47]. Blood from vena cava, liver, spleen, brain, eye, kidney, lung, white adipose tissue (WAT), and brown adipose tissue (BAT) were collected. Blood samples were centrifuged to obtain serum. Serum and collected tissues were frozen at −80 °C until analysis.
To mimic the human dietary intake of lutein, daily dosing study 2 was conducted (Figure 1C). […]

For `CC1=C[C@H](O)CC(C)(C)[C@H]1/C=C/C(C)=C/C=C/C(C)=C/C=C/C=C(C)/C=C/C=C(C)/C=C/C1=C(C)C[C@@H](O)CC1(C)C` [lutein, Lutein], the “Earliest time point for lutein to be detectable in brain” value [1] was 12 h, the “Earliest time point for lutein to be detectable in eye” value [1] was 24 h and the “Earliest time point for lutein to be detectable in spleen” value [1] was 6 h. For the same molecule, the “Observable illness in the pups” value [2] was “no observable illness”.
